The test system of assay [1] is A549. Nature of the assay: Cytotoxicity against human A549 cells incubated for 3 days by MTT assay. To be noted: A549, 72 h. The class given is functional, cell-based. On the technique in general: Formazan colour is commonly taken as a measure of viable cells.
The subject of assay [2] is HepG2. The assay can be described thus: Cytotoxicity against human HepG2 cells incubated for 3 days by MTT assay. The settings on record: HepG2, 72 h. Type of assay: functional, cell-based.
The subject of assay [3] is MCF7. Nature of the assay: Cytotoxicity against human MCF7 incubated for 3 days by MTT assay. Type of assay: functional, cell-based. The settings on record: MCF7, 72 h.
Assay [4] deals with Neutrophil. The assay can be described thus: Anti-inflammatory activity in human neutrophils assessed as inhibition of fMLP/CB-induced elastase release incubated for 5 mins followed by fMLP/CB stimulation using MeO-Suc-Ala-Ala-Pro-Val-p-nitroanilide substrate. The class given is functional, cell-based.
Assay [5] can be described thus: Anti-inflammatory activity in human neutrophils assessed as inhibition of fMLP/CB-induced superoxide anion generation incubated for 5 mins followed by fMLP/CB stimulation for 10 mins by spectrophotometry. The class given is functional, cell-based, Neutrophil.
Assay [6] in a line: Cytotoxicity against human Hep2 cells incubated for 3 days by MTT assay. Type of assay: functional, cell-based. To be noted: HEp-2, 72 h.
A short description of assay [7]: Anti-inflammatory activity in human neutrophils assessed as inhibition of fMLP/CB-induced elastase release at 28.6 uM incubated for 5 mins followed by fMLP/CB stimulation using MeO-Suc-Ala-Ala-Pro-Val-p-nitroanilide substrate. The class given is functional. To be noted: Neutrophil.

Structures are written as SMILES. The source made the active and inactive calls. The calls are words filed in the database; no cut-off is given here.

Usually IC50 stands for the concentration that gives 50% inhibition. The term inhibition denotes the share of the control response that was lost under treatment. Take `C[C@@H]1CC[C@@]2(O)[C@@H](C[C@@H](O)C2(C)C)C(=O)[C@@]1(C)CCC1=CC(=O)OC1`: the IC50 in assay [1] was above 10 µM; in assay [2], above 10 µM; in assay [3], above 10 µM; in assay [5] (neutrophil), “Not Active”; in assay [6], above 10 µM. In addition, the inhibition result in assay [4] is “inactive”.
Take `C[C@@H]1CC[C@]2(O)[C@H](C[C@@H](O)C2(C)C)C(=O)[C@@]1(C)CCC1=CC(=O)OC1`: the IC50 in assay [1] is above 10 µM; in assay [2], above 10 µM; in assay [3], above 10 µM; in assay [5] (Homo sapiens, Neutrophil, read-out: IC50), 21.5 µM; in assay [6], above 10 µM. Also, the inhibition at 28.6 µM in assay [7] turned out to be 35.9%.
As to `C[C@@H]1C[C@H]2C(=O)C(C)(C)[C@H](OC=O)CC[C@]2(O)[C@@]1(C)CCC1=CC(=O)OC1`, the IC50 is above 10 µM in assay [1]; above 10 µM in assay [2]; above 10 µM in assay [3]; “Not Active” in assay [5] (neutrophil); above 10 µM in assay [6]. Further, in assay [4], the inhibition entry was “inactive”.
For the compound `C[C@@H]1C[C@H]2C(=O)C(C)(C)[C@H](O)CC[C@]2(O)[C@@]1(C)CCC1=CC(=O)OC1`, the IC50 in assay [1] was above 10 µM; in assay [2] it was above 10 µM; in assay [3], above 10 µM; in assay [5] (neutrophil), “Not Active”; in assay [6], above 10 µM. Also, the inhibition result in assay [4] was “inactive”.

The values above are taken from ChEMBL document CHEMBL3593230, “Randainins A-D, Based on Unique Diterpenoid Architectures, from Callicarpa randaiensis” (J Nat Prod, 2015).
